Our source for the IC50 values is US20230219951A1, “PYRIDINE-PYRIMIDINE DERIVATIVE, PREPARATION METHOD THEREFOR AND PHARMACEUTICAL USE THEREOF” (Jiangsu Hengrui Pharmaceuticals Co., Ltd., priority 2020, published 2023).

Experiment [1] has as its system ERK phosphorylation of H358 cells. Briefly: Inhibition of ERK phosphorylation of H358 cells (HTRF pERK/total ERK). The class given is cell-based. The note with it: Homo sapiens, NCI-H358, 1 h incubation, pERK/total ERK ratio. The protocol: This experiment is intended to evaluate the inhibition effect of the compounds of the present disclosure on the KRAS target (containing the G12C mutation) according to IC50 by determining the inhibition effect of the compounds on ERK phosphorylation of the cells.
H358 cells (ATCC, CRL-5807) were cultured in RPMI1640 (Hyclone, SH30809.01) complete medium containing 10% fetal bovine serum. On the first day of the experiment, the H358 cells were seeded into a 96-well plate at a density of 25,000 cells/well with a complete medium to form 190 μL of cell suspension per well. The plate was incubated overnight in a cell incubator at 37° C. with 5% CO2. The next day, 10 μL of test compound diluted in a gradient prepared with the complete medium was added to each well. The final concentrations of the compound were 9 concentration points obtained by 5-fold gradient dilution from 10 μM. A blank control containing 0.1% DMSO was set. The plate was incubated in a cell incubator at 37° C. with 5% CO2 for 1 h. 1 h later, the 96-well cell culture plate was taken out, the medium was removed by pipetting, 200 μL PBS (Shanghai BasalMedia Technologies Co., Ltd., B320) was added to each well, and the cells were washed once. PBS was removed by pipetting, 50 μL of lysis buffer (Cisbio, 64KL1FDF) containing a blocking reagent (Cisbio, 64KB1AAC) was added to each well, and the plate was shaken on a shaker at room temperature for 40 min for lysis. After lysis, the lysate was pipetted and mixed well, 16 μL of lysate was transferred from each well to each of two HTRF 96-well assay plates (Cisbio, 66PL96100), and then 4 μL of premixed phospho-ERK1/2 antibody solution (Cisbio, 64AERPEG) or 4 μL of premixed total-ERK1/2 antibody solution (Cisbio, 64NRKPEG) was added to each of the two plates. The microplate was sealed with a sealing membrane, centrifuged for 1 min in a microplate centrifuge, and incubated overnight at room temperature away from the light. On the third day, the fluorescence values at an excitation wavelength of 337 nm and at emission wavelengths of 665 nm and 620 nm were read using a PHERAstar multi-mode microplate reader (BMG Labtech, S/N 471-0361).
IC50 values for inhibitory activity of the compounds were calculated using Graphpad Prism software based on compound concentrations and pERK/total ERK ratio.

The test system of the next experiment is H358 cells. Put plainly: Inhibition of proliferation of H358 cells (CellTiter-Glo 3D). The format is cell-based. As to conditions: Homo sapiens, NCI-H358, low adsorption plate, 120 h. As for the experimental part:
This example is intended to evaluate the inhibition effect of the compounds of the present disclosure on the KRAS target (containing the G12C mutation) by testing the inhibition effect of the compounds of the present disclosure on the proliferation of H358 cells.
H358 cells (ATCC, CRL-5807) were cultured in a complete medium, namely RPMI1640 medium (Hyclone, SH30809.01) containing 10% fetal bovine serum (Corning, 35-076-CV). On the first day of the experiment, the H358 cells were seeded into a 96-well low adsorption plate (Coming, CLS7007-24EA) at a density of 1500 cells/well with a complete medium to form 90 μL of cell suspension per well. The plate was centrifuged at 2000 rpm for 5 min at room temperature and then incubated overnight in a cell incubator at 37° C. with 5% CO2. The next day, 10 μL of test compound diluted in a gradient prepared with the complete medium was added to each well. The final concentrations of the compound were 9 concentration points obtained by 5-fold gradient dilution from 10 μM. A blank control containing 0.1% DMSO was set. The plate was incubated in a cell incubator at 37° C. with 5% CO2 for 120 h. On the seventh day, the 96-well cell culture plate was taken out and 50 μL of CellTiter-Glo® 3D reagent (Promega, G9682) was added into each well. The plate was shaken at room temperature for 25 min, pipetted and mixed well, from which 50 μL of the mixture was transferred into a white impermeable 96-well plate (PE, 6005290). The luminescence signal values were read using a multi-mode microplate reader (PerkinElmer, VICTOR 3).
IC50 values for the inhibitory activity of the compounds were calculated using Graphpad Prism software.

The target of experiment [2] is T1, interaction between the KRAS protein subtype G12V and the SOS1 protein (Homo sapiens, UniProt Q07889).
T1 construct: GST-TEV-SOS1(564-1049) (Viva Biotech, SOS1-191010); purchased SOS1: Viva Biotech; KRAS: Shanghai Panchao Biotechnology Co., Ltd. SOS1-191010
T1 sequence (Q07889 564-1049): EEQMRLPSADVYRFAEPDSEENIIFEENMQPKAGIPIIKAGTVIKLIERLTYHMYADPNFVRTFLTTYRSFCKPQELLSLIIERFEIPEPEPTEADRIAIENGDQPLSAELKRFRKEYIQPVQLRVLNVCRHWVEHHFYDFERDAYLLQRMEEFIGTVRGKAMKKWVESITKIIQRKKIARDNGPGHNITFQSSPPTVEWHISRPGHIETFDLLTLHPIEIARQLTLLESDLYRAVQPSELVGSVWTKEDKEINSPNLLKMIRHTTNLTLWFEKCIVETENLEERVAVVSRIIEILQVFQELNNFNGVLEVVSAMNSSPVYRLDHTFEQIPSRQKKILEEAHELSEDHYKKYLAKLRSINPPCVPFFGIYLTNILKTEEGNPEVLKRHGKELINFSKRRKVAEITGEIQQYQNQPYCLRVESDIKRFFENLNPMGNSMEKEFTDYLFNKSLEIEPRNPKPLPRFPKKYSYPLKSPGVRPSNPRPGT
Briefly: Inhibition of the interaction between KRAS G12V and SOS1 protein (AlphaLISA/AlphaScreen). The class given is binding. As to conditions: KRAS G12V + GST-TEV-SOS1(564-1049) + GDP. As for the experimental part:
(§1) Test Example 1: Inhibitory Ability of Compounds of the Present Disclosure to the Interaction Between the KRAS Protein Subtype G12D or G12V and the SOS1 Protein. The inhibitory ability of the compounds of the present disclosure to the interaction between the KRAS protein subtype G12D or G12V and the SOS1 protein was determined by the following method. The experimental method was briefly described as follows:
(§2) 1. The experimental buffer was prepared prior to the start of the experiment: 1×PBS+0.1% BSA+0.05% tween 20.
(§3) 2. KRAS G12D and KRAS-G12V proteins were labeled with biotin using the biotin labeling kit.
(§4) 1. Firstly, the biotin-labeled KRAS G12D or KRAS G12V protein was mixed and incubated with the SOS1 protein and GDP for later use.
(§5) 2. AlphaLISA glutathione acceptor beads and AlphaScreen streptavidin donor beads were mixed at a ratio of 1:1 to make the concentration of 40 μg/mL for later use.
(§6) 3. The compound was formulated with the experimental buffer to obtain 10 concentration points by 5-fold gradient dilution from an initial concentration of 40 μM.
(§7) 4. In the 384-well microplate, 10 μL of a mixture of KRAS G12D or KRAS G12V protein and SOS1 and GDP and 5 μL of the diluted compound were added to each well and incubated at room temperature for 30 min away from the light.
(§8) 5. Then, 5 μL of a mixture of AlphaLISA glutathione acceptor beads and AlphaScreen streptavidin donor beads was added to each well and incubated at room temperature for 60 min away from the light.
(§9) 6. The fluorescence values were read on a multi-mode microplate reader.
(§10) 7. IC50 values of the compounds were calculated using Graphpad Prism.
On the technique in general: In Alpha technology, singlet oxygen from a donor bead excites a nearby acceptor bead.

Experiment [3] deals with T2, interaction between the KRAS protein subtype G12D and the SOS1 protein (Homo sapiens, UniProt Q07889).
T2 construct: GST-TEV-SOS1(564-1049) (Viva Biotech, SOS1-191010); purchased SOS1: Viva Biotech; KRAS: Shanghai Panchao Biotechnology Co., Ltd. SOS1-191010
T2 sequence (Q07889 564-1049): T1 sequence (Q07889 564-1049)
Briefly: Inhibition of the interaction between KRAS G12D and SOS1 protein (AlphaLISA/AlphaScreen). As to conditions: KRAS G12D + GST-TEV-SOS1(564-1049) + GDP. The format is binding. The protocol: as §1, §2, §3, §4, §5, §6, §7, §8, §9, §10

As usually defined, the IC50 is the concentration that gives 50% inhibition.

With `Cc1nc(N[C@H](C)c2cccc(C(F)F)c2F)c2cc(OC3CN(C(=O)CF)C3)c(=O)[nH]c2n1` [Example 27, (R)-4-((1-(3-(difluoromethyl)-2-fluorophenyl)ethyl)amino)-6-((1-(2-fluoroacetyl)azetidin-3-yl)oxy)-2-methylpyrido[2,3-R]pyrimidin-7(8H)-one], the IC50 was 258 nM in experiment [1], 202 nM in the experiment on H358 cells, 52 nM in experiment [2] and 20 nM in experiment [3].
For `Cc1nc(N[C@H](C)c2cccc(C(F)F)c2F)c2cc([C@]3(O)CC[C@H](O)CC3)c(=O)[nH]c2n1` [Example 18-p2, 4-(((R)-1-(3-(difluoromethyl)-2-fluorophenyl)ethyl)amino)-6-((1r,4R)-1,4-dihydroxycyclohexyl)-2-methylpyrido[2,3-d]pyrimidin-7(8H)-one], in that order: 222 nM, 213 nM, 112 nM and 40 nM.
For `Cc1nc(N[C@H](C)c2cccc3c2OCC3(F)F)c2cc([C@]3(O)CC[C@@H](O)CC3)c(=O)[nH]c2n1` (racemic) [Example 25-p1, rac-4-(((R)-1-(3,3-difluoro-2,3-dihydrobenzofuran-7-yl)ethyl)amino)-6-((1s,4S)-1,4-dihydroxycyclohexyl)-2-methylpyrido[2,3-d]pyrimidin-7(8H)-one], in that order: 101 nM, 120 nM, 35 nM and 31 nM.
On to `Cc1nc(N[C@H](C)c2cccc(C(F)F)c2F)c2cc(C3(O)CCN(C(=O)CC#N)CC3)c(=O)[nH]c2n1` [Example 21, (R)-3-(4-(4-((1-(3-(difluoromethyl)-2-fluorophenyl)ethyl)amino)-2-methyl-7-oxo-7,8-dihydropyrido[2,3-d]pyrimidin-6-yl)-4-hydroxypiperidin-1-yl)-3-oxopropanenitrile], for which the concentration for half-maximal inhibition (IC50) was 87 nM in experiment [1], 62 nM with H358 cells, 54 nM in experiment [2] and 15 nM in experiment [3].
With `Cc1nc(N[C@H](C)c2cccc3c2OCC3(F)F)c2cc([C@]3(O)CC[C@H](O)CC3)c(=O)[nH]c2n1` (racemic) [Example 25-p2, rac-4-(((R)-1-(3,3-difluoro-2,3-dihydrobenzofuran-7-yl)ethyl)amino)-6-((1r,4R)-1,4-dihydroxycyclohexyl)-2-methylpyrido[2,3-d]pyrimidin-7(8H)-one], the IC50 in experiment [1] was 489 nM; with H358 cells, 1020 nM; in experiment [2], 65 nM; in experiment [3], 37 nM.
On the same counts, the results for `Cc1nc(N[C@H](C)c2cccc(C(F)F)c2F)c2cc(C3CCN(C(=O)CC#N)CC3)c(=O)[nH]c2n1` [Example 17, (R)-3-(4-(4-((1-(3-(difluoromethyl)-2-fluorophenyl)ethyl)amino)-2-methyl-7-oxo-7,8-dihydropyrido[2,3-d]pyrimidin-6-yl)piperidin-1-yl)-3-oxopropanenitrile] are 79 nM, 65 nM, 30 nM and 28 nM.
For `Cc1nc(N[C@H](C)c2cccc(C(F)F)c2F)c2cc(N3CCOCC3)c(=O)[nH]c2n1` [Example 16, (R)-4-((1-(3-(difluoromethyl)-2-fluorophenyl)ethyl)amino)-2-methyl-6-morpholinopyrido[2,3-d]pyrimidin-7(8H)-one], in that order: 218 nM, 97 nM, 136 nM and 39 nM.
In the case of `CC(=O)N1CCC(O)(c2cc3c(N[C@H](C)c4cccc(C(F)F)c4F)nc(C)nc3[nH]c2=O)CC1` [Example 12, (R)-6-(1-acetyl-4-hydroxypiperidin-4-yl)-4-((1-(3-(difluoromethyl)-2-fluorophenyl)ethyl)amino)-2-methylpyrido[2,3-d]pyrimidin-7(8H)-one], the IC50 in experiment [1] turned out to be 48 nM; with H358 cells it was 55 nM; in experiment [2], 50 nM; in experiment [3], 14 nM.
In the case of `Cc1nc(N[C@H](C)c2cccc(C(F)F)c2F)c2cc([C@]3(O)CC[C@H](O)CC3)c(=O)n(C)c2n1` [Example 28-p2, 4-(((R)-1-(3-(difluoromethyl)-2-fluorophenyl)ethyl)amino)-6-((1r,4R)-1,4-dihydroxycyclohexyl)-2,8-dimethylpyrido[2,3-d]pyrimidin-7(8H)-one], the IC50 was found to be 937 nM in experiment [1], 716 nM in the experiment with H358 cells, 187 nM in experiment [2] and 175 nM in experiment [3].
On the same counts, the results for `Cc1nc(N[C@H](C)c2cccc(C(F)(F)CO)c2F)c2cc(C3=CCOCC3)c(=O)[nH]c2n1` [Example 1, (R)-4-((1-(3-(1,1-difluoro-2-hydroxyethyl)-2-fluorophenyl)ethyl)amino)-6-(3,6-dihydro-2H-pyran-4-yl)-2-methylpyrido[2,3-d]pyrimidin-7(8H)-one] are 59 nM, 34 nM, 54 nM and 22 nM.
